Results taken from US10882852B1, “3-vinylquinolines as cancer cells inhibitors” (King Abdulaziz University, priority 2020, dated 2021).
“And” between values parts separate entries of the source, which are not always exact repeats. Equal entries are not always repeated. Where two headings read alike, the source gives them in different places. One block for each compound: values may come before it.

Columns and labels:
[1] = test system: tubulin (colchicine binding site); test: [3H]colchicine site competitive binding assay; settings: inhibition of [3H]colchicine binding
Description: The affinity of compounds 8c to colchicine binding site was determined using Colchicine Site Competitive Assay kit CytoDYNAMIX Screen15 (Cytoskeleton, Inc., CO, USA) using the standard protocol of the manufacturer to determine Ki values (μM). Biotin-labelled tubulin ([…]) in 10 μL of reaction buffer was mixed with [3H]colchicine (0.08 μM, PerkinElmer, Waltham, Mass.) and the test compounds (positive control colchicine, negative control vinblastine, G-1, fluorescent G-1, or 2-ME) in a 96-well plate (final volume: 100 μL). After incubating for 2 h at 37° C. with gentle shaking, streptavidin-labelled yttrium SPA beads ([…] in 20 μL reaction buffer, PerkinElmer, Waltham, Mass.) were added to each well and incubated for 30 min at 4° C. The plates were then read on a scintillation counter (Packard Instrument, Topcount Microplate Reader) and the percentage of inhibition was calculated

[2] = test system: bovine brain tubulin; test: Tubulin polymerization assay; assay type: biochemical; settings: inhibition of tubulin polymerization; tubulin at 10 μM; read-out: Tubulin assembly IC50 ± SD
Description: The assembly of purified bovine tubulin was monitored using a kit, BK006, purchased from Cytoskeleton Inc., (Denver, Colo., USA). The assay was carried out in accordance with the manufacturer's instructions using the standard assay conditions. […] Light is scattered proportionally to the concentration of polymerized microtubules in the assay. Therefore, tubulin assembly was monitored turbidimetrically at 340 nm in a Spectramax 340 PC spectrophotometer (Molecular Devices, Sunnyvale, Calif., USA). The concentration that inhibits tubulin polymerization by 50% (IC50) was determined using area under the curve (AUC). The AUC of the untreated controls were considered as 100% polymerization. The IC50 value for each compound was computed using GraphPad Prism Software.

[3] = test system: HeLa cervical cancer cells; test: MTT cell viability assay, HeLa; assay type: cell-based, human
Description: (§1) All the human tumour cell lines MCF-7, HCT-116, HL-60 and HeLa were cultured in Dulbecco's Modified Eagle's Medium (DMEM) with 10% fetal bovine serum, 2 mM L-glutamine and 100 µg/mL penicillin/streptomycin. Cells were maintained at 37° C. in 5% CO2 in a humidified incubator. All cells were sub-cultured 3 times/week by trypsinization using TrypLE Express (1×).
(§2) The quinoline compounds were evaluated for antiproliferative effect using the MTT viability assay of four cancer cell lines (MCF-7, HCT-116, HL-60 and HeLa) and normal breast cells MCF-10A to calculate the relative IC50 values for each compound. Cells were seeded in triplicate in 96-well plates at a density of 10×10^3 cells/ml in a total volume of 200 μl per well. 0.1% of DMSO was used as a vehicle control. After this time, they were treated with 2 μl test compound which had been pre-prepared as stock solutions in ethanol to furnish the concentration range of study, 1 nM to 50 μM, and re-incubated for a further 72 h. The culture medium was then removed, and the cells washed with 100 μL phosphate buffered saline (PBS) and 50 μL MTT added, to reach a final concentration of 1 mg/mL MTT added. Cells were incubated for 2 h in darkness at 37° C. At this point solubilisation was begun through the addition of […] DMSO and the cells maintained at room temperature in darkness for 20 min to ensure thorough colour diffusion before reading the absorbance. Plates were incubated for 72 hours at 37° C.+5% CO2, The MTT (5 mg/mL in PBS) was added and incubated for another 4 h, the optical density was detected with a microplate reader at 570 nm. Results were expressed as percentage viability relative to vehicle control (100%). Dose response curves were plotted and IC50 values (concentration of drug resulting in 50% reduction in cell survival) were obtained using the commercial software package Prism (GraphPad Software, Inc., La Jolla, Calif., USA). All the experiments were repeated in at least three independent experiments.

[4] = test system: MCF-10A normal epithelial breast cells; test: MTT cell viability assay, normal breast cells; assay type: cell-based, human; settings: 72 h
Description: as §2, with “Dose response curves were plotted and IC50 values (concentration of drug resulting in 50% reduction in cell survival) were obtained using the commercial software package Prism (GraphPad Software, Inc., La Jolla, Calif., USA). All the experiments were repeated in at least three independent experiments.” left out

[5] = test system: MCF-7 cells; test: Cell cycle analysis by PI flow cytometry; assay type: cell-based, human; settings: MCF-7, 50 nM
Description: MCF-7 cells were seeded at a density of 1×10^5 cells/well in 6-well plates and treated with CA-4 (50 nM) and compound 8c (50 and 250 nM) for 24, 48 and 72 hr. The cells were collected by trypsinization and centrifuged at 800×g for 15 min. Cells were washed twice with ice-cold PBS and fixed in ice-cold 70% ethanol overnight at −20° C. Fixed cells were centrifuged at 800×g for 15 min and stained with 50 μg/mL of PI, containing 50 μg/mL of DNase-free RNase A, at 37° C. for 30 min. The DNA content of cells (10,000 cells/experimental group) was analysed by flow cytometer at 488 nm using a FACSCalibur flow cytometer (BD Biosciences, San Jose, Calif.) and all data were recorded and analyzed using the CellQuest Software (Becton-Dickinson).

[6] = test system: HCT-116 colon cancer cells; test: MTT cell viability assay, HCT-116; assay type: cell-based, human; settings: HCT-116, MTT
Description: as §1, §2

[7] = test system: HL-60 leukemia cells; test: MTT cell viability assay, HL-60; assay type: cell-based, human
Description: as §1, §2

[8] = test system: MCF-7 breast cancer cells; test: MTT cell viability assay, MCF-7; assay type: cell-based, human
Description: as §1, §2

[9] = test system: MCF-7 cells; test: ROS production by H2-DCFDA; assay type: cell-based, human; settings: MCF-7, 50 nM, 24 h; untreated 1.0%
Description: Mitochondrial membrane potential (Δψmt) was measured by flow cytometry with DiOC2(3) staining and additional labelling with an annexin V conjugate. After treatment with compound 8c (50 and 250 nM) and CA-4 (50 nM), cells were stained with DiOC2(3) dye for 30 min in the incubator then harvested and washed with PBS. DiOC2(3)-stained cells were resuspended with 1× annexin binding buffer then added annexin V conjugate and incubated at 37° C. for 15 min. Then the data obtained from flow cytometry were analyzed by Cell Quest software. Production of intracellular Reactive oxygen species (ROS) was measured using 2,7-dichlorofluorescin diacetate (H2-DCFDA) dye. MCF-7 cells were seeded and treated either with vehicle (0.1% DMSO) or with compound 8c (50 and 250 nM) and CA-4 (50 nM) for different time 6, 12 and 24 h. H2O2 was used as a positive control. The amount of ROS generated was estimated after 2 h of selected compound treatment. The cells were collected by centrifugation and washed twice with PBS. Cells were then incubated with DCFDA dye (25 μM) in dark at 37° C. for 1 h. Fluorescence spectra (510-600 nm) were monitored using an excitation wavelength of 488 nm

[10] = test system: MCF-7 cells; test: Annexin V/PI apoptotic assay; assay type: cell-based, human; settings: MCF-7, 50 nM, 48 h; control 1%
Description: Apoptotic cell death was detected by flow cytometry using Annexin V and propidium iodide (PI). […] Cells were then harvested and prepared for flow cytometric analysis. Cells were washed in 1× binding buffer (20× binding buffer: 0.1M HEPES, pH 7.4; 1.4 M NaCl; 25 mM CaCl2) diluted in dH2O) and incubated in the dark for 30 minutes on ice in Annexin V-containing binding buffer [1:100]. Cells were then washed once in binding buffer and then re-suspended in […] binding buffer [1:1000]. Samples were analysed immediately using the BD accuri flow cytometer and prism software for analysis the data. Four populations are produced during the assay Annexin V and PI negative (Q4, healthy cells), Annexin V positive and PI negative (Q3, early apoptosis), Annexin V and PI positive (Q2, late apoptosis) and Annexin V negative and PI positive (Q1, necrosis).

[11] = test system: pro-apoptotic protein Bax; test: BAX ELISA in MCF-7 cells; assay type: cell-based, human; settings: MCF-7, 250 nM, 48 h
Description: (§3) Bcl-2 content of MCF-7 cells was assessed by ELISA Kit purchased Zymed laboratories, invitrogen immunodetection according to the manufacturer's protocol, and the enzyme concentration was expressed as ng/mL [55]. ELISA Assay for BAX content of MCF-7 cells was assessed by ELISA kit purchased from Cloud-Clone Crop. (USA) according to the manufacturer's protocol, and the enzyme concentration was expressed as ng/mL [56]. In Vitro Caspase-9 Activation Assay was performed using human active caspase-9 Invitrogen EIA kit and the procedure of the used kit was done according to the manufacturer's instructions.

[12] = test system: MCF-7 cells; test: Colony formation assay; assay type: cell-based, human; settings: MCF-7, 50 and 250 nM
Description: MCF-7 cells (600 cells per well) were seeded in 6-well plates and incubated for 24 h before being then treated with different doses of the compound 8c (50 and 250 nM) for 14 days. […]. Then the cells were washed with PBS twice and subsequently fixed with 4% paraformaldehyde and stained with 0.05% crystal violet for 30 min. Finally, cells were visualized using an inverted microscope.

[13] = test system: anti-apoptotic protein Bcl-2; test: Bcl-2 ELISA in MCF-7 cells; assay type: cell-based, human; settings: MCF-7, 250 nM, 48 h
Description: as §3

[14] = test system: caspase-9; test: Caspase-9 activation assay in MCF-7 cells; assay type: cell-based, human; settings: MCF-7, 50 nM
Description: as §3

[15] = test system: MCF-7 cells; test: Wound healing (cell migration) assay; assay type: cell-based, human; settings: MCF-7, 24 h
Description: MCF-7 were grown in 6-well plates for 24 h, then the scratches were made using pipette tip and washed with PBS to remove non-adherent cell debris. Subsequently, the cells were treated with different concentrations of 8c for 24 h. The migrations across the wound area were photographed under a phase contrast microscopy.

SMILES: COc1ccc(/C=C\c2cc(OC)c(OC)c(OC)c2)cc1O [CA-4, Combretastatin A-4, reference compound]
Colchicine binding % ± SD, 1 μM drug [1]: 86% and 86 ± 0.9% | Colchicine binding % ± SD, 5 μM drug [1]: 97% and 97 ± 2% | IC50 [2]: […] | IC50 ([3]; 72 h, read-out: IC50 value (μM) HeLa): 0.064 ± 0.004 µM | IC50 [4]: 6100 nM | percentage of cells in G2/M phase ([5]; 24 h): 40.3% | population in the sub-G1 phase (apoptosis) ([5]; 24 h): 23.5% | population in the sub-G1 phase (apoptosis) ([5]; 48 h): 31.1% | percentage of cells in G2/M phase ([5]; 48 h, control 9.2%): 43.8% | percentage of cells in G2/M phase ([5]; 72 h): 47.7% | population in the sub-G1 phase (apoptosis) ([5]; 72 h): 37.4% | IC50 ([6]; 72 h, read-out: IC50 value (μM) HCT-116): 0.026 ± 0.001 µM | IC50 ([7]; HL-60, MTT, 72 h, mean ± spread of three experiments, read-out: IC50 value (μM) HL-60): 0.076 ± 0.004 µM | IC50 ([8]; MCF-7, MTT, 72 h, read-out: IC50 value (μM) MCF-7): 0.019 ± 0.004 µM | ROS generation [9]: 18.3% | Annexin V-staining positive cells (total apoptotic cells) [10]: 29%

Colchicine binding % ± SD, 1 μM drug [1]: 79% and 79 ± 2% | Colchicine binding % ± SD, 5 μM drug [1]: 87% and 87 ± 1% | IC50 [2]: 1200 nM and 1210 nM | IC50 ([3]; Homo sapiens, read-out: IC50 in HeLa): 0.0427 µM | IC50 ([6]; Homo sapiens, read-out: IC50 in HCT-116): 0.0225 µM | IC50 ([7]; HL-60, MTT, read-out: IC50 in HL-60): 0.0107 µM | IC50 ([7]; Homo sapiens, HL-60, HL-60, MTT, read-out: IC50 in HL-60): 0.0191 µM | IC50 ([8]; Homo sapiens, MCF7, MCF-7, MTT, read-out: IC50 in MCF-7): 0.0107 µM | IC50 ([8]; MCF-7, MTT, read-out: IC50 in MCF-7): 0.0191 µM
SMILES: COc1cc(C2=NC(=Cc3cc4ccc(C)cc4nc3OC)C(=O)O2)cc(OC)c1OC [Compound 8c, 4-[(2-Methoxy-7-methylquinolin-3-yl)methylene]-2-(3,4,5-trimethoxyphenyl)oxazol-5(4H)-one]
expression of pro-apoptotic protein Bax [11]: up-regulation in the expression | inhibition of colony formation [12]: inhibited the colony formation in a dose dependent manner | expression level of anti-apoptotic protein Bcl-2 [13]: decrease in the expression level | fold increase in caspase-9 expression [14]: about 6 fold | Annexin V-staining positive cells (total apoptotic cells) [10]: 15% | inhibition of cell migration (wound healing) [15]: migration inhibition in a dose dependent manner
